The results in this text go back to patent publication US20060067991A1 (priority 2004, published 2006).

Data set [1] concerns enzymes produced by S. aureus MN8. Nature of the data set: Breakdown of test compounds by enzymes produced by S. aureus MN8, GC/MS of culture fluid. Type of data set: in vitro ADME. The note with it: concentrations of b130; for course of the concentration of the dominant compound over time: GC/MS at 3, 6, 9 and 24 hours; for dominant compound found in the culture fluid: GC/MS, undiluted solutions at 3, 6, 9 and 24 hours. On the procedure: (§1) The test compounds, in the desired concentrations, were placed in 100 mL of a growth medium in a sterile, 500 mL Corning Fleaker (Fisher Scientific, Pittsbury, Pa.). The growth medium and inoculum were prepared as in Example 1.
(§2) The test compounds were added to the growth medium in the amount necessary to obtain the desired final concentration.
(§3) Each fleaker was inoculated with the amount of inoculum determined as described above. The fleakers were capped with sterile aluminum foil and incubated at 35° C. in atmospheric air in a Lab-Line orbital water bath (available from VWR Scientific Products, McGaw Park, Ill.) at 180 rpm. Fifteen milliliter samples were removed at 3, 6, 9, and 24 hours. The optical density (595 nm) of the culture fluid was determined and the culture fluid collected at 24 hours was assayed for the number of colony forming units of S. aureus MN8 using standard plate count procedures.
In preparation for analysis of the integrity of the test compounds, the culture fluid was centrifuged at 3000 rpm at 2-10° C. for 15 minutes. The supernatant was filter sterilized through an AUTOVIAL 5 syringeless filter, […] pore size (available from Whatman, Inc., Clifton, N.J.). The resulting fluid was frozen at −70° C. in a FISHERBRAND (12 mm×75 mm) polystyrene culture tube (Fisher Scientific, Pittsburgh, Pa.) until chemical analysis could be performed.
Using an Agilent Technologies 5973N GC/MS, analysis was performed on undiluted solutions at 3, 6, 9, and 24 hours to evaluate the ability of S. aureus MN8 to breakdown the test compounds. Based on the analysis, the control sample, which had no test compounds added, comprised mostly acetic acid at all time intervals.

For data set [2] the test system is unchanged. Nature of the data set: Breakdown of test compounds by S. aureus MN8, liquid chromatography of culture fluid. Type of data set: in vitro ADME. Particulars: 6 hour and 24 hour samples, UV 230 nm. On the procedure:
as §1, §2, §3
In preparation for analysis of the integrity of the test compounds, the culture fluid was centrifuged at 3000 rpm at 2-10° C. for 15 minutes. […]
Additional analysis of the 6 hour and 24 hour samples was conducted by liquid chromatography. […] The dilutions were then analyzed using an ion exclusion column to achieve the separation. Detection of the compounds was accomplished through UV absorbance at 230 nm.

In the case of `CC(C)CC(NC(=O)c1ccccc1)C(=O)O` (racemic) [N-benzoyl-DL-leucine, N-Benzoyl-DL-Leucine], in data set [1], the “course of the concentration of the dominant compound over time” value (“course of the concentration … over time” below) is recorded as “decreasing concentration over time” and the “dominant compound found in the culture fluid” value (“dominant compound found” for short) is recorded as “benzoic acid”. The “breakdown to the active species” value in data set [2] is reported as “breakdown to benzoic acid”.

`OCc1ccccc1` [Benzyl alcohol, benzyl alcohol]: in data set [1], the “course of the concentration … over time” value is “decreased over time” and the “dominant compound found” value is “benzyl alcohol”.

For the compound `O=C(O)c1ccccc1` [benzoic acid], in data set [1], the “course of the concentration … over time” value was “decreased over time” and the “dominant compound found” value is recorded as “benzoic acid”.
